{"source": "patent US8927579B2", "about": "“Male contraceptive” (priority 2007, dated 2015)", "key": {"[1]": {"tested_on": "longitudinal muscle of human vas deferens", "test": "New molecules against contractions to high K+ (120 mM), longitudinal muscle", "conditions": "for IC50: Homo sapiens, contractions evoked by K+ (120 mM), preliminary data, mean, n=2-3, read-out: Functional inhibitory potencies (IC50 values), Longitudinal muscle; for Selectivity [(C/L)-1]: longitudinal muscle selectivity from IC50 values in circular and longitudinal muscle, K+ (120 mM)", "description": "(§1) Human vas deferens specimens were obtained after elective vasectomies of healthy fertile men. College ethical approval and the consent of patients were obtained. The specimens were placed in ice-cold Krebs' medium, dissected-free of connective tissue/blood vessels and cut longitudinally into strips (longitudinal muscle preparations; 5-8 mm long & 1 mm wide) or transversely into rings (circular muscle preparations; ˜3 mm in length). The longitudinal and circular muscle preparations were then set up for tension recording (resting tension 5-7 mN) in a Perspex chamber superfused at 2 ml per min with Krebs' medium (36° C.) composed of (mM): NaCl, 118.8; NaHCO3, 25; KCl, 4.7; CaCl2.2H2O, 2.5; KH2PO4, 1.2; MgSO4.7H2O, 1.2; glucose, 11.1; ascorbic acid 0.1 and continuously gassed with 95% O2 and 5% CO2. Contractile responses were recorded via a Harvard type force-displacement transducer. The analog signals were digitised using CIO-Das 16/Jr data acquisition software (Amplicon Liveline, Brighton, UK) and re-plotted on a microcomputer.\n(§2) Tissues were equilibrated for 180 min in Krebs' medium containing inhibitors of extraneuronal and neuronal reuptake of noradrenaline, oestradiol (1 μM) and desipramine (0.1 μM) respectively, inhibitors of catechol-O-methyltransferase and monoamine oxidase, tropolone (10 μM) and iproniazid (10 μM) respectively and the β-adrenoceptor blocker, propranolol (1 μM). At the end of the equilibration period, the tissues were stimulated with noradrenaline (100 μM). […] After 40-45 min in this medium the tissues were stimulated with high [K^+]O (120 mM, Initial response). This was followed by exposure to cumulative concentrations of the new molecules {NIBA(1)XC1, NIBA(14)XN10, NIBA(6)XN3, NIBA(2)XC2, NIBA(53)XN16} or to Krebs' medium containing drug vehicles (time-matched controls). After contact times of 40-60 min at each drug concentration, the tissues were stimulated with high [K^+]o (120 mM). The resulting contractions were measured using computer software developed in-house to measure the total response (i.e. rhythmic activity plus tonic contraction). Contractions obtained in the presence of the new drug molecules were expressed as a percentage of the initial contraction evoked by high [K^+]o (120 mM) before exposure to the drugs."}, "[2]": {"tested_on": "circular muscle of human vas deferens", "test": "New molecules against contractions to high K+ (120 mM), circular muscle", "conditions": "contractions evoked by K+ (120 mM), preliminary data, mean, n=2-3, read-out: Functional inhibitory potencies (IC50 values), Circular muscle", "description": "as §1, §2"}, "[3]": {"tested_on": "sperm emission in patients", "conditions": "cited from earlier work"}, "[4]": {"tested_on": "longitudinal muscle of human vas deferens", "test": "IC50 against contractions evoked by high K+ (120 mM) in the presence of FPL 64176, longitudinal muscle strips", "conditions": "contractions evoked by K+ (120 mM) in the presence of FPL 64176 (1 μM), means ± S.E.M.", "description": "as §1, with “5-10” for “5-8”, “3” for “˜3”, “Harvard-type” for “Harvard type”\n(§3) Tissues were equilibrated for 180 min in Krebs' medium containing inhibitors of extraneuronal and neuronal reuptake of noradrenaline, oestradiol (1 μM) and desipramine (0.1 μM) respectively, inhibitors of catechol-O-methyltransferase and monoamine oxidase, tropolone (10 μM) and iproniazid (10 μM) respectively and the β-adrenoceptor blocker, propranolol (1 μM). At the end of the equilibration period, the tissues were stimulated with noradrenaline (100 μM). […] After a contact time of 30-40 min in this medium, different experimental protocols (described below) were adopted in order to • (a) Elucidate the contractile actions of L-type Ca^2+ agonists such as FPL 64176 or Bay K 8644. In these experiments, tissues were exposed to FPL 64176 (0.1-10 μM added cumulatively) or in separate experiments Bay K 8644 (0.1-10 μM added cumulatively). • (b) Investigate the effects of various diphenylalkylamines and conventional L-type Ca^2+ antagonists (methoxyverapamil or nifedipine) on contractions evoked by high concentrations of extracellular potassium (high [K^+]o) in the presence of L-type Ca^2+ agonists, FPL 64176 (1 μM) or Bay K 8644 (1 μM). In this protocol, tissues were stimulated with high [K^+]O (10, 30 and 120 mM at 10-15 min intervals) in normal Krebs' medium, then exposed to L-type Ca^2+ agonists for 20-30 min and subsequently stimulated with high [K^+]O (10, 30 and 120 mM) in the presence of the drugs. These provided the initial responses. Following this and in the continuous presence of the L-type Ca^2+ agonists, the tissues were exposed additionally to L-type Ca^2+ antagonists (conventional or diphenylalkylamines) or drug-free vehicle medium. After contact times of 25-50 min the tissues were stimulated, first with high [K^+]O (either 30 mM or 120 mM) in order to take account of the well-documented use-dependent action of the diphenylalkylamine Ca^2+ antagonists. Following recovery from the test contraction and after a further 30-40 min, the tissues were then stimulated with high [K^+]o (10, 30 and 120 mM). This protocol is illustrated in FIGS. 3 and 4. The resulting contractions were measured (see below) and expressed as a percentage of corresponding initial responses to high [K^+]o evoked in the presence of L-type Ca^2+ agonists (i.e. before exposure to L-type Ca^2+ antagonists). […] Subsequent analysis (see below) was between contractions of drug-treated tissues and time-matched controls • (c) Determine the inhibitory potencies (IC50 values) of various diphenylalkylamines and phenothiazines and conventional L-type Ca^2+ antagonists (nifedipine and methoxyverapamil) against contractions evoked in longitudinal and circular muscle of human vas deferens by high [K^+]o (120 mM) in the presence of FPL 64176. In these experiments, tissues were stimulated with high [K^+]o (120 mM); sequentially in normal Krebs' medium and after 25-30 min exposure to the L-type Ca^2+ agonist, FPL 64176, (1 μM, Initial response). […]"}, "[5]": {"tested_on": "circular muscle of human vas deferens", "test": "IC50 against contractions evoked by high K+ (120 mM) in the presence of FPL 64176, circular muscle rings", "conditions": "contractions evoked by K+ (120 mM) in the presence of FPL 64176 (1 μM), means ± S.E.M.", "description": "as §1, with “5-10” for “5-8”, “3” for “˜3”, “Harvard-type” for “Harvard type”\nas §3"}, "[6]": {"tested_on": "longitudinal muscle of human vas deferens", "test": "Inhibition at fixed concentration of contractions evoked by high K+ in the presence of FPL 64176, longitudinal muscle", "conditions": "[K+]o 120 mM in the presence of FPL 64176", "description": "as §1, with “5-10” for “5-8”, “3” for “˜3”, “Harvard-type” for “Harvard type”\nTissues were equilibrated for 180 min in Krebs' medium containing inhibitors of extraneuronal and neuronal reuptake of noradrenaline, oestradiol (1 μM) and desipramine (0.1 μM) respectively, inhibitors of catechol-O-methyltransferase and monoamine oxidase, tropolone (10 μM) and iproniazid (10 μM) respectively and the β-adrenoceptor blocker, propranolol (1 μM). At the end of the equilibration period, the tissues were stimulated with noradrenaline (100 μM). […] After a contact time of 30-40 min in this medium, different experimental protocols (described below) were adopted in order to • (a) Elucidate the contractile actions of L-type Ca^2+ agonists such as FPL 64176 or Bay K 8644. In these experiments, tissues were exposed to FPL 64176 (0.1-10 μM added cumulatively) or in separate experiments Bay K 8644 (0.1-10 μM added cumulatively). • (b) Investigate the effects of various diphenylalkylamines and conventional L-type Ca^2+ antagonists (methoxyverapamil or nifedipine) on contractions evoked by high concentrations of extracellular potassium (high [K^+]o) in the presence of L-type Ca^2+ agonists, FPL 64176 (1 μM) or Bay K 8644 (1 μM). In this protocol, tissues were stimulated with high [K^+]O (10, 30 and 120 mM at 10-15 min intervals) in normal Krebs' medium, then exposed to L-type Ca^2+ agonists for 20-30 min and subsequently stimulated with high [K^+]O (10, 30 and 120 mM) in the presence of the drugs. These provided the initial responses. […] The resulting contractions were measured (see below) and expressed as a percentage of corresponding initial responses to high [K^+]o evoked in the presence of L-type Ca^2+ agonists (i.e. before exposure to L-type Ca^2+ antagonists). […]"}, "[7]": {"tested_on": "circular muscle of human vas deferens", "test": "Inhibition at fixed concentration of contractions evoked by high K+ in the presence of FPL 64176, circular muscle", "conditions": "[K+]o 120 mM in the presence of FPL 64176", "description": "as §1, with “5-10” for “5-8”, “3” for “˜3”, “Harvard-type” for “Harvard type”\nTissues were equilibrated for 180 min in Krebs' medium containing inhibitors of extraneuronal and neuronal reuptake of noradrenaline, oestradiol (1 μM) and desipramine (0.1 μM) respectively, inhibitors of catechol-O-methyltransferase and monoamine oxidase, tropolone (10 μM) and iproniazid (10 μM) respectively and the β-adrenoceptor blocker, propranolol (1 μM). At the end of the equilibration period, the tissues were stimulated with noradrenaline (100 μM). […] After a contact time of 30-40 min in this medium, different experimental protocols (described below) were adopted in order to • (a) Elucidate the contractile actions of L-type Ca^2+ agonists such as FPL 64176 or Bay K 8644. In these experiments, tissues were exposed to FPL 64176 (0.1-10 μM added cumulatively) or in separate experiments Bay K 8644 (0.1-10 μM added cumulatively). • (b) Investigate the effects of various diphenylalkylamines and conventional L-type Ca^2+ antagonists (methoxyverapamil or nifedipine) on contractions evoked by high concentrations of extracellular potassium (high [K^+]o) in the presence of L-type Ca^2+ agonists, FPL 64176 (1 μM) or Bay K 8644 (1 μM). In this protocol, tissues were stimulated with high [K^+]O (10, 30 and 120 mM at 10-15 min intervals) in normal Krebs' medium, then exposed to L-type Ca^2+ agonists for 20-30 min and subsequently stimulated with high [K^+]O (10, 30 and 120 mM) in the presence of the drugs. These provided the initial responses. Following this and in the continuous presence of the L-type Ca^2+ agonists, the tissues were exposed additionally to L-type Ca^2+ antagonists (conventional or diphenylalkylamines) or drug-free vehicle medium. After contact times of 25-50 min the tissues were stimulated, first with high [K^+]O (either 30 mM or 120 mM) in order to take account of the well-documented use-dependent action of the diphenylalkylamine Ca^2+ antagonists. Following recovery from the test contraction and after a further 30-40 min, the tissues were then stimulated with high [K^+]o (10, 30 and 120 mM). This protocol is illustrated in FIGS. 3 and 4. The resulting contractions were measured (see below) and expressed as a percentage of corresponding initial responses to high [K^+]o evoked in the presence of L-type Ca^2+ agonists (i.e. before exposure to L-type Ca^2+ antagonists). […]"}}, "note": "Counter-ions that a name gives are not always drawn.", "data": [{"molecule": "CC(NCCN(c1ccccc1)c1ccccc1)c1ccccc1", "note": "(centres unmarked) [NIBA(14)XN10]", "values": [{"measurement": "IC50", "setting": "[1]", "value": 15, "unit": "µM"}, {"measurement": "relative effectiveness against longitudinal and circular muscle contractions", "setting": "[1]; contractions evoked by high [K+]o", "value": "more effective against longitudinal than circular muscle contractions"}, {"measurement": "Selectivity [(C/L)-1]", "setting": "[1]", "value": 5.1}, {"measurement": "IC50", "setting": "[2]", "value": 91, "unit": "µM"}]}, {"molecule": "CN1CCCC1CCN(c1ccccc1)c1ccccc1", "note": "(centres unmarked) [NIBA(53)XN16]", "values": [{"measurement": "IC50", "setting": "[1]", "value": 4.5, "unit": "µM"}, {"measurement": "Selectivity [(C/L)-1]", "setting": "[1]", "value": 1.4}, {"measurement": "IC50", "setting": "[2]", "value": 11, "unit": "µM"}]}, {"molecule": "CC(COc1ccccc1)N(CCCl)Cc1ccccc1", "note": "(centres unmarked) [PBZ, phenoxybenzamine]", "values": [{"measurement": "effect on sperm emission (contraceptive side effect)", "setting": "[3]; clinical studies", "value": "reversibly inhibit sperm emission"}, {"measurement": "effects on libido, erection, orgasmic sensation, blood pressure, hormonal balance", "setting": "[3]; clinical studies", "value": "without effects on libido, penile erection, orgasmic sensation and more importantly blood pressure or hormonal balance"}]}, {"molecule": "O=c1[nH]c2ccccc2n1C1CCN(CCCC(c2ccc(F)cc2)c2ccc(F)cc2)CC1", "note": "[Pimozide, pimozide]", "values": [{"measurement": "IC50", "setting": "[4]; Homo sapiens", "value": "4.4 ± 0.6", "unit": "µM"}, {"measurement": "IC50", "setting": "[5]; Homo sapiens", "value": "8.9 ± 3.1", "unit": "µM"}, {"measurement": "inhibition at 10 µM", "setting": "[6]; Homo sapiens, drug 10 μM", "value": 71, "unit": "%"}, {"measurement": "inhibition at 10 µM", "setting": "[7]; Homo sapiens, drug 10 μM", "value": 55, "unit": "%"}]}, {"molecule": "CN1CCCCC1CCN1c2ccccc2Sc2ccc(S(C)(=O)=O)cc21", "note": "(centres unmarked) [Sulphoridazine, sulphoridazine]", "values": [{"measurement": "IC50", "setting": "[4]", "value": "15.9 ± 2.9", "unit": "µM"}, {"measurement": "IC50", "setting": "[5]", "value": "14.1 ± 4.9", "unit": "µM"}]}, {"molecule": "CSc1ccc2c(c1)N(CCC1CCCCN1C)c1ccccc1S2", "note": "(centres unmarked) [Thioridazine, thioridazine hydrochloride]", "values": [{"measurement": "time to inhibition of sperm emission after drug administration", "setting": "[3]; even at sub therapeutic doses", "value": "≤ 24", "unit": "h"}]}, {"molecule": "CN1CCN(CCCN2c3ccccc3Sc3ccc(C(F)(F)F)cc32)CC1", "note": "[Trifluoperazine, trifluoperazine dihydrochloride]", "values": [{"measurement": "IC50", "setting": "[4]; Homo sapiens", "value": "20.7 ± 5.4", "unit": "µM"}, {"measurement": "IC50", "setting": "[5]; Homo sapiens", "value": "10.2 ± 3", "unit": "µM"}, {"measurement": "effect on sperm emission (contraceptive side effect)", "setting": "[3]; clinical studies", "value": "lack the contraceptive side-effect"}]}, {"molecule": "(−)-methoxyverapamil hydrochloride", "values": [{"measurement": "IC50", "setting": "[4]", "value": "0.016 ± 0.0009", "unit": "µM"}, {"measurement": "IC50", "setting": "[5]", "value": "0.0181 ± 0.0038", "unit": "µM"}, {"measurement": "inhibition of longitudinal muscle contractions", "setting": "[6]; drug 1.0 μM", "value": "93-98%"}, {"measurement": "inhibition of circular muscle contractions", "setting": "[7]; drug 1.0 μM", "value": "93-98%"}]}]}
